Data published in patent US20190169181A1, “FUMAGILLOL COMPOUNDS AND METHODS OF MAKING AND USING SAME” (Zafgen, Inc., priority 2016, published 2019).
Structures can show the parent of a compound that is named as a salt.

Key:
[1] = tested on: Diet Induced Obese (DIO) C57BL/6 mice; assay: 10 day DIO mouse model, weight loss vs. vehicle; format: in vivo; settings: 240 h; for inhibition in vivo at 0.3 mg/kg: 0.3 mpk sc once a day for 10 days; for inhibition in vivo at 1 mg/kg: 1.0 mpk sc once a day for 10 days
Text: The objective of this study design was to investigate the efficacy of disclosed compounds in a 10 day DIO mouse model. Effects on body weight, food intake, hematology and blood chemistry were the primary readouts of this study design. Male, Diet Induced Obese (DIO) C57BL/6 mice, 19-21 weeks of age (13-15 weeks on high fat diet) were ordered from a certified vendor and upon receipt were housed on irradiated corncob bedding in micro-isolator cages on a 12-hour light-dark cycle (0700-1900) at 68-74° F. and 30-70% humidity. Mice were fed Research Diets D12492 (60% Kcal fat, 20% Kcal carbohydrate and 20% protein) and provided water ad libitum. DIO mice were received and housed in the facility for approximately two weeks prior to the start of test article administration. On Day −4 or −3, mice were randomized into study groups based on body weight and body weights were continued to be recorded daily for the duration of the study. Daily food intake was assessed starting on Study Day −2 by weighing of the food with hopper together to avoid loss of food in transfer.
(§1) Compounds were formulated into a 100% DMSO stock (at 9 mg/mL) prior to the start, and further diluted into the target working concentration using the vehicle of 10% DMSO in water. Prior to test article administration, starting on Day −3 a dosing acclimation occurred with all animals receiving a subcutaneous injection of vehicle (10% DMSO) only for 3 days. Starting on Day 1, test compounds or vehicle were administered based on individual body weight, subcutaneously, once a day for 10 days. All mice were sacrificed on Day 11, 24 hours following the final dosing on Day 10. After sacrifice, whole blood was collected and analyzed for hematology and blood chemistry parameters.
(§2) Compounds were tested for weight loss vs. vehicle at 0.3 and 1.0 mpk sc (mg per kg animal weight delivered subcutaneously), and the results are shown in Table 2 below.

[2] = target: T1, recombinant human MetAP2 (Homo sapiens, UniProt P50579); assay: Recombinant human MetAP2 enzyme inhibition assay (MAS peptide / amino acid oxidase / Amplex Ultrared readout); format: biochemical; settings: Flag tagged human recombinant MetAP2, 25 minutes at 25° C.
T1 construct: Flag; made in house
Description: Compounds are tested for their capacity to inhibit recombinant human MetAP2 activity using the following assay.
Flag tagged Human recombinant MetAP2 expressed and isolated for use as the enzyme source. 10 mM stock solutions of compounds were prepared in 100% DMSO and further diluted in 100% DMSO required concentration to 1 mM stocks. The stock compound solutions and DMSO vehicle controls were diluted to target final compound concentrations using assay buffer to a final concentration of 50 mM HEPES containing 100 mM NaCl, pH adjusted to 7.5. The MAS peptide was formulated to a 7.5 mM stock in distilled water and prior to use further diluted 1:4. […] 40 μl of enzyme was mixed with 100 μl of MnCl2 then further diluted in assay buffer to a final concentration of 16 μg/ml. To test for compound effect on MetAP2 enzyme activity, 5 μl of test compound, 10 μl of MAS substrate/amino acid oxidase mixture, 10 μl of MetAP2 was added to test wells in a 384 well black plate with blank wells containing no enzyme, replaced with 10 μl of assay buffer. All compounds were tested in duplicate on two occasions on the same day.
The plate was sealed with a TopSeal A cover and mixed briefly on an orbital mixer at 900 rpm. The plate was incubated for a further 25 minutes at 25° C. A 5× stock of Amplex buffer was prepared (0.25 M sodium phosphate, pH 7.4) and stored at 4° C. […] Horse radish peroxidase was diluted in […] of Amplex buffer, 100 μl of this was combined with 50 μl of Amplex Ultrared in […] of 1× Amplex buffer to generate sufficient detection reagent for a 384 well plate. 25 μl detection reagent was added to each well of the test plate, which was re-sealed and mixed briefly on an orbital shaker. The plate was transferred to an Envision Multi-label reader and RFU measured corresponding to excitation 531 nm and emission 595 nm. At the end of the MetAP2 incubation 25 μl Amplex/HRP mixture per well was added and the plate read plate on a plate reader.

[3] = tested on: rat DIO model (Sprague Dawley rats on 45% High Fat diet); assay: 11 day rat DIO model, weight loss vs. vehicle; format: in vivo; settings: for Rat @ 0.3 mpk sc (%) weight loss vs. vehicle: 0.3 mpk sc once a day for 11 days; for Rat @ 1.0 mpk sc (%) weight loss vs. vehicle: 1.0 mpk sc once a day for 11 days
Text: The objective of this study design is to investigate the efficacy of disclosed compounds in an 11 day rat DIO model used to screen compounds for pharmacologic efficacy on endpoints related to obesity and metabolism. Effects on body weight, food intake, hematology and blood chemistries were the primary readouts of this study design. Male Sprague Dawley rats, approximately 8 weeks of age, were ordered from a certified vendor and housed on irradiated corncob bedding in micro-isolator cages, on a 12-hour light-dark cycle (0700-1900) at 68-74° F. and 30-70% humidity. Rats were fed Research Diets D12451 (45% High Fat) and provided water ad libitum. Rats were received and housed in the facility for at least two or three weeks prior to start of test article administration. On Day −4 or −3, rats were randomized into study groups based on body weight and body weights were continued to be recorded daily for the duration of the study. Daily food intake was assessed starting on Study Day −2 by weighing the hopper including the food to avoid loss of food in transfer.
as §1, with “for 11” for “for 10”, “All animals” for “All mice”, “11, approximately 2” for “11, 24”, “Day 11.” for “Day 10.”
as §2

T1 sequence (P50579 whole entry): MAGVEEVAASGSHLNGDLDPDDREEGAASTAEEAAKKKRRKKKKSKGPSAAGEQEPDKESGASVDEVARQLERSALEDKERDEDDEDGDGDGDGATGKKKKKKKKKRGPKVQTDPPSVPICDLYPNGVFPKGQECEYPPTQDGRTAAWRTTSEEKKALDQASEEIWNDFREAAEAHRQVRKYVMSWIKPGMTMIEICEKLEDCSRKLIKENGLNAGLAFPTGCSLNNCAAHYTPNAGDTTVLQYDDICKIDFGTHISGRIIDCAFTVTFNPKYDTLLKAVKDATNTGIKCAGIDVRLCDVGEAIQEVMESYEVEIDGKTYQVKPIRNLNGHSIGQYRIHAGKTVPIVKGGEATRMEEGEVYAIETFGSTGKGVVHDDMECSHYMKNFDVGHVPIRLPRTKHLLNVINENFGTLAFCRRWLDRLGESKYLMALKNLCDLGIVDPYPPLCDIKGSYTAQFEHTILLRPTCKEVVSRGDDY

IC50 [2]	Compound	inhibition in vivo at 0.3 mg/kg [1]	inhibition in vivo at 1 mg/kg [1]	Rat @ 0.3 mpk sc (%) weight loss vs. vehicle [3]	Rat @ 1.0 mpk sc (%) weight loss vs. vehicle [3]
< 50 nM	CNc1nnc([C@@H](NC(=O)O[C@@H]2CC[C@]3(CO3)[C@@H]([C@@]3(C)O[C@@H]3CC=C(C)C)[C@@H]2OC)C(C)C)o1 [Example 2, (3R,5S,6R)-5-methoxy-4-((2R,3R)-2-methyl-3-(3-methylbut-2-enyl)oxiran-2-yl)-1-oxaspiro[2.5]octan-6-yl (S)-2-methyl-1-(5-(methylamino)-1,3,4-oxadiazol-2-yl)propylcarbamate]	5.4%	4.6%	0.6%	0.9%
50 to 500 nM	CO[C@@H]1[C@H](OC(=O)N[C@H](c2nccn2C[C@@H]2CCCN2C)C(C)C)CC[C@]2(CO2)[C@H]1[C@@]1(C)O[C@@H]1CC=C(C)C [Example 6, (3R,4S,5S,6R)-5-methoxy-4-((2R,3R)-2-methyl-3-(3-methylbut-2-enyl)oxiran-2-yl)-1-oxaspiro[2.5]octan-6-yl (S)-2-methyl-1-(1-(((S)-1-methylpyrrolidin-2-yl)methyl)-1H-imidazol-2-yl)propylcarbamate formate]	6.5%		0.1%	2.1%
50 to 500 nM	CO[C@@H]1[C@H](OC(=O)N[C@@H](c2cn(C[C@H]3CCN(C)C3)cn2)C(C)C)CC[C@]2(CO2)[C@H]1[C@@]1(C)O[C@@H]1CC=C(C)C [Example 12, (3R,4S,5S,6R)-5-methoxy-4-((2R,3R)-2-methyl-3-(3-methylbut-2-enyl)oxiran-2-yl)-1-oxaspiro[2.5]octan-6-yl (R)-2-methyl-1-(1-(((S)-1-methylpyrrolidin-3-yl)methyl)-1H-imidazol-4-yl)propylcarbamate formate]	9.5%		12.9%	18.8%
50 to 500 nM	CO[C@@H]1[C@H](OC(=O)N[C@H](c2cn(C[C@@H]3CCN(C)C3)cn2)C(C)C)CC[C@]2(CO2)[C@H]1[C@@]1(C)O[C@@H]1CC=C(C)C [Example 13, (3R,4S,5S,6R)-5-methoxy-4-((2R,3R)-2-methyl-3-(3-methylbut-2-enyl)oxiran-2-yl)-1-oxaspiro[2.5]octan-6-yl (S)-2-methyl-1-(1-(((R)-1-methylpyrrolidin-3-yl)methyl)-1H-imidazol-4-yl)propylcarbamate]	8.2%		11.5%	22%
< 50 nM	CO[C@@H]1[C@H](OC(=O)N[C@H](c2cn(C[C@H]3CCN(C)C3)cn2)C(C)C)CC[C@]2(CO2)[C@H]1[C@@]1(C)O[C@@H]1CC=C(C)C [Example 15, (3R,4S,5S,6R)-5-methoxy-4-((2R,3R)-2-methyl-3-(3-methylbut-2-en-1-yl)oxiran-2-yl)-1-oxaspiro[2.5]octan-6-yl ((S)-2-methyl-1-(1-(((S)-1-methylpyrrolidin-3-yl)methyl)-1H-imidazol-4-yl)propyl)carbamate]	10.8%	8.4%	10.6%	16.4%
50 to 500 nM	CO[C@@H]1[C@H](OC(=O)N[C@H](c2cn(C[C@H]3CCCN3C)cn2)C(C)C)CC[C@]2(CO2)[C@H]1[C@@]1(C)O[C@@H]1CC=C(C)C [Example 16, (3R,4S,5S,6R)-5-methoxy-4-((2R,3R)-2-methyl-3-(3-methylbut-2-enyl)oxiran-2-yl)-1-oxaspiro[2.5]octan-6-yl (S)-2-methyl-1-(1-(((R)-1-methylpyrrolidin-2-yl)methyl)-1H-imidazol-4-yl)propylcarbamate]	6.6%		2.8%	
50 to 500 nM	CO[C@@H]1[C@H](OC(=O)N[C@@H](Cc2noc(=O)[nH]2)C(C)C)CC[C@]2(CO2)[C@H]1[C@@]1(C)O[C@@H]1CC=C(C)C [Example 27, (3R,4S,5S,6R)-5-methoxy-4-((2R,3R)-2-methyl-3-(3-methylbut-2-enyl)oxiran-2-yl)-1-oxaspiro[2.5]octan-6-yl (S)-3-methyl-1-(5-oxo-4,5-dihydro-1,2,4-oxadiazol-3-yl)butan-2-ylcarbamate]		5.4%	−0.8%	1.9%
50 to 500 nM	CO[C@@H]1[C@H](OC(=O)NCC(C)(C)c2nnc[nH]2)CC[C@]2(CO2)[C@H]1[C@@]1(C)O[C@@H]1CC=C(C)C [Example 39, (3R,4S,5S,6R)-5-methoxy-4-((2R,3R)-2-methyl-3-(3-methylbut-2-enyl)oxiran-2-yl)-1-oxaspiro[2.5]octan-6-yl 2-methyl-2-(4H-1,2,4-triazol-3-yl)propylcarbamate]	3.4%	7.6%		
50 to 500 nM	CO[C@@H]1[C@H](OC(=O)N(C)[C@H](c2cn(CC(C)C)cn2)C(C)C)CC[C@]2(CO2)[C@H]1[C@@]1(C)O[C@@H]1CC=C(C)C [Example 40, (3R,4S,5S,6R)-5-methoxy-4-((2R,3R)-2-methyl-3-(3-methylbut-2-enyl)oxiran-2-yl)-1-oxaspiro[2.5]octan-6-yl ((S)-1-(1-isobutyl-1H-imidazol-4-yl)-2-methylpropyl)(methyl)carbamate]	2.3%			

Compound	IC50 [2]	inhibition in vivo at 0.3 mg/kg [1]	inhibition in vivo at 1 mg/kg [1]	Rat @ 0.3 mpk sc (%) weight loss vs. vehicle [3]	Rat @ 1.0 mpk sc (%) weight loss vs. vehicle [3]
CO[C@@H]1[C@H](OC(=O)N[C@H](c2ccc(N3CCC3)nc2)C(C)C)CC[C@]2(CO2)[C@H]1[C@@]1(C)O[C@@H]1CC=C(C)C [Example 41, (3R,4S,5S,6R)-5-methoxy-4-((2R,3R)-2-methyl-3-(3-methylbut-2-enyl)oxiran-2-yl)-1-oxaspiro[2.5]octan-6-yl ((S)-1-(6-(azetidin-1-yl)pyridin-3-yl)-2-methylpropyl)carbamate]	< 50 nM	11.7%			
CO[C@@H]1[C@H](OC(=O)N[C@H](c2cn(CC(C)C)cn2)C(C)C)CC[C@]2(CO2)[C@H]1[C@@]1(C)O[C@@H]1CC=C(C)C [Example 42, (3R,4S,5S,6R)-5-methoxy-4-((2R,3R)-2-methyl-3-(3-methylbut-2-en-1-yl)oxiran-2-yl)-1-oxaspiro[2.5]octan-6-yl ((S)-1-(1-isobutyl-1H-imidazol-4-yl)-2-methylpropyl)carbamate]	< 50 nM	10%			
